Patent publication US20220056043A1, “NITROGEN-CONTAINING FUSED CYCLIC COMPOUND, PREPARATION METHOD THEREFOR AND USE THEREOF” (SICHUAN KELUN-BIOTECH BIOPHARMACEUTICAL CO., LTD., priority 2019, published 2022)

Assays:
THP1-defNLRP3 cells = assay: Agonistic effect on the expression of IL-1β in NLRP3 deficient THP1 cells (THP1-defNLRP3) after PMA-induced differentiation (HTRF); assay type: cell-based, human; conditions: Homo sapiens, THP-1; IL-1β level, PMA-differentiated NLRP3 deficient THP1 cells, 6 hours; highest test concentration 30 μM; read-out: hNLRP3 EC50 (μM) (THP-1defNLRP3)
Text: Experimental Example 2: Agonistic Effect of the Compound of the Invention on the Expression of IL-1β in NLRP3 Deficient THP1 Cells (THP1-defNLRP3 Cells) after PMA-Induced Differentiation
In this test, a HTRF detection method was used to test the effect of the compound of the invention on the level of IL-1β in THP1-defNLRP3 cells to evaluate the specificity of the agonistic effect of the compound on hNLRP3 inflammasome or hNLRP3 inflammasome pathway.
Reagents: as described in Experimental Example 1
Cell: THP1-defNLRP3 (InvivoGen)
Kit: IL-1β assay kit (CISBIO)
1) THP1-defNLRP3 cells in a logarithmic growth phase were seeded in a T75 culture flask at a density of 5×10^5 cells/well, and cultured in a cell incubator at 37° C., 5% CO2 for 24 hours, and then 1 μM PMA was used to induce THP1-defNLRP3 suspension cells to become adherent macrophages. The medium was RPMI 1640 containing 10% heat-inactivated FBS and 0.05 mM β-mercaptoethanol.
2) The cells were induced and cultured for 24 hours. Then the adherent cells were trypsinized and centrifuged at 1000 rpm for 5 min. The supernatant was removed, and the cells were resuspended to a density of 2×10^6 cells/mL in RPMI 1640 medium containing 2% heat-inactivated FBS. 50 μL/well of the cell resuspension was taken and spread on a 96-well plate such that the number of cells in each well was 1×10^5.
3) An appropriate amount of 10 mM DMSO solution of the compound to be tested was taken and diluted to a concentration of 2× test concentration with RPMI 1640 medium containing 2% heat-inactivated FBS. 50 μL/well of the dilution was added to the cells in the 96-well plate, and mixed well. The plate was incubated in a cell incubator at 37° C., 5% CO2 for 6 hours. The supernatant was collected, and the level of IL-1β was measured in accordance with the instructions of the IL-1β detection kit.
4) EC50 was fitted by the GraphPad software log(agonist) vs. response—Variable slope four-parameter method.

hTLR8 = biological target: T1, hTLR8 (Homo sapiens, UniProt Q9NR97); assay: Agonistic effect on hTLR8, HEK-Blue hTLR8 cells, alkaline phosphatase secretion; assay type: cell-based; conditions: 16 hours
T1 construct: host or cells: HEK-Blue hTLR8 cells
T1 sequence (Q9NR97 27-1041): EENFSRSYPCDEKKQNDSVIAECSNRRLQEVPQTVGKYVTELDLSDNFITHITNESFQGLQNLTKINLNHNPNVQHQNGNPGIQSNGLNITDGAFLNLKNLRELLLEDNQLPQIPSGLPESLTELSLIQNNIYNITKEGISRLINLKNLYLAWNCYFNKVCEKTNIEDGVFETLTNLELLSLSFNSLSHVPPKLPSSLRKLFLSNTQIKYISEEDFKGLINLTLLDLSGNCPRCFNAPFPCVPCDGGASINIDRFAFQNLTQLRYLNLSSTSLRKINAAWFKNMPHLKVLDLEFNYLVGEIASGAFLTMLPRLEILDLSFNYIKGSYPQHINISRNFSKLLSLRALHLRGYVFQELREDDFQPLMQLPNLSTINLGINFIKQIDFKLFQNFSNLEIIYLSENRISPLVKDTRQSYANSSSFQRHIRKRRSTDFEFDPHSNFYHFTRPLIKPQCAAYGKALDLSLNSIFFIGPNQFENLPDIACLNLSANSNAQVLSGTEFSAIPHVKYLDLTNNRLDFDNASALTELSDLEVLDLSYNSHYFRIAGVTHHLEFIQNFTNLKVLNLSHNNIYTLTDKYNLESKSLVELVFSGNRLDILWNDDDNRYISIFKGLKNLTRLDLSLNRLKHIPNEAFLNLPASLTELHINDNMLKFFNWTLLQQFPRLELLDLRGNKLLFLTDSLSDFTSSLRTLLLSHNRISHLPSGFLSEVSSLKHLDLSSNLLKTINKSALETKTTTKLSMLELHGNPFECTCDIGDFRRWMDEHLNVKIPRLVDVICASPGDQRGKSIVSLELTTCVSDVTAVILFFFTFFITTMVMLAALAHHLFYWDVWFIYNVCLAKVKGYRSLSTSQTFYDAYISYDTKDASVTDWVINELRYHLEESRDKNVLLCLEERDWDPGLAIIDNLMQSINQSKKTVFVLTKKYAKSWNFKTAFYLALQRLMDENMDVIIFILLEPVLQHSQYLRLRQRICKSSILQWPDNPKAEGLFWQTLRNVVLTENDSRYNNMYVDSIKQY
Experimental: Experimental Example 4: Agonistic Effect of the Compound of the Invention on hTLR8
In this test, the secretion of alkaline phosphatase in HEK-Blue cells was measured to test the activating effect of the compound of the invention on TLR8 signaling pathway, so as to evaluate the specificity of the agonistic effect of the compound on NLRP3 pathway.
Reagents: DMEM (High glucose); FBS (fetal bovine serum) (Gibco); QUANTI-Blue/InvivoGen/rep-qb2
Cells: HEK-Blue™ hTLR8 cells (human TLR 8 cells) (InvivoGen) Experimental Procedures:
1) The HEK-Blue™ hTLR8 cells in a logarithmic growth phase were trypsinized and resuspended in the medium to a concentration of 2×10^6 cells/mL. 50 μL/well of the cell suspension was added to a 96-well plate. An appropriate amount of 10 mM DMSO solution of the compound to be tested was taken and diluted to a concentration of 2× test concentration with the medium. 50 μL/well was added to the cells in the 96-well plate. The plate was incubated in an incubator at 37° C. and 5% CO2 for 16 hours. The medium was DMEM (High glucose) containing 10% FBS. 2) After the cell incubation, 10 μL of cell culture supernatant was transferred to a 96-well plate. 90 μL/well of QUANTI-Blue detection solution was added, and the mixture was incubated at 37° C. for 3 hours. OD620 was read using a microplate reader.
3) The EC50 of the effect of the tested compound to stimulate hTLR8 was fitted by the GraphPad software log(agonist) vs. response—Variable slope four-parameter method.

Structure (SMILES)	EC50 (THP1-defNLRP3 cells)	EC50 (hTLR8)
C[C@@H]1CN(CCNc2cc(N)nc3cc(-c4ccn[nH]4)sc23)C[C@H](C)O1 [Compound 117, N^7-(2-((2S,6R)-2,6-dimethylmorpholino)ethyl)-2-(1H-pyrazol-5-yl)thieno[3,2-b]pyridine-5,7-diamine]	> 30 µM	> 100 µM
N#CC1(CNc2cc(N)nc3cc(-c4ccn[nH]4)sc23)CC1 [Compound 119]	> 30 µM	> 100 µM
Nc1cc(NCC2CCOCC2)c2sc(-c3ccn[nH]3)cc2n1 [Compound 120, 2-(1H-pyrazol-5-yl)-N^7-((tetrahydro-2H-pyran-4-yl)methyl)thieno[3,2-b]pyridine-5,7-diamine]	> 30 µM	> 100 µM
CC1(CNc2cc(N)nc3cc(-c4ccn[nH]4)sc23)COC1 [Compound 121, N^7-((3-methyloxetan-3-yl)methyl)-2-(1H-pyrazol-5-yl)thieno[3,2-b]pyridine-5,7-diamine]	> 30 µM	> 100 µM
CC(CO)(CO)CNc1cc(N)nc2cc(-c3ccn[nH]3)sc12 [Compound 122]	> 30 µM	> 100 µM
Cc1c(-c2cc[nH]n2)sc2c(NCCN3CCOCC3)cc(N)nc12 [Compound 153]	> 30 µM	> 100 µM
Cc1c(-c2cc[nH]n2)sc2c(NCC3CC3)cc(N)nc12 [Compound 156]	> 30 µM	> 100 µM
Cc1c(-c2ccn[nH]2)sc2c(NC[C@@H]3CCCO3)cc(N)nc12 [Compound 157]	> 30 µM	> 100 µM
Cc1c(-c2cc[nH]n2)sc2c(NCCCO)cc(N)nc12 [Compound 159]	> 30 µM	> 100 µM
Nc1cc(N2CCN(C3CCCC3)CC2)c2sc(-c3ccn[nH]3)cc2n1 [Compound 160]	> 30 µM	> 100 µM
CN1CCN(c2cc(N)nc3cc(-c4ccn[nH]4)sc23)CC1 [Compound 161]	> 30 µM	> 100 µM
CC(C)N1CCN(c2cc(N)nc3cc(-c4ccn[nH]4)sc23)CC1 [Compound 162]	> 30 µM	> 100 µM
Nc1cc(N2CCN(C3CC3)CC2)c2sc(-c3ccn[nH]3)cc2n1 [Compound 163]	> 30 µM	> 100 µM
CS(=O)(=O)N1CCN(c2cc(N)nc3cc(-c4ccn[nH]4)sc23)CC1 [Compound 164]	> 30 µM	> 100 µM
COC1(C)CCN(c2cc(N)nc3cc(-c4ccn[nH]4)sc23)CC1 [Compound 165]	> 30 µM	> 100 µM
Nc1cc(N2CCCC(O)C2)c2sc(-c3ccn[nH]3)cc2n1 (stereo not shown) [Compound 166]	> 30 µM	> 100 µM

Structure (SMILES)	EC50 (THP1-defNLRP3 cells)	EC50 (hTLR8)
Nc1cc(N2CCN(C3CCCCC3)CC2)c2sc(-c3ccn[nH]3)cc2n1 [Compound 167]	> 30 µM	> 100 µM
C[C@H]1CN(c2cc(N)nc3cc(-c4ccn[nH]4)sc23)C[C@H](C)O1 [Compound 168]	> 30 µM	> 100 µM
C[C@@H]1CN(c2cc(N)nc3cc(-c4ccn[nH]4)sc23)C[C@H](C)O1 [Compound 169]	> 30 µM	> 100 µM
Nc1cc(N2CCOCC2)c2sc(-c3ccn[nH]3)cc2n1 [Compound 170]	> 30 µM	> 100 µM
CC1(C)CN(c2cc(N)nc3cc(-c4ccn[nH]4)sc23)CCO1 [Compound 171]	> 30 µM	> 100 µM
Nc1cc(N2CCC(O)CC2)c2sc(-c3ccn[nH]3)cc2n1 [Compound 172]	> 30 µM	> 100 µM
CC1(C)CCN(c2cc(N)nc3cc(-c4ccn[nH]4)sc23)CC1 [Compound 173]	> 30 µM	> 100 µM
Nc1cc(N2CCN(c3ccccc3)CC2)c2sc(-c3ccn[nH]3)cc2n1 [Compound 174]	> 30 µM	> 100 µM
Nc1cc(N2CCNCC2)c2sc(-c3ccn[nH]3)cc2n1 [Compound 175]	> 30 µM	> 100 µM
Nc1cc(N2CC3CC(C2)N3)c2sc(-c3ccn[nH]3)cc2n1 [Compound 176]	> 30 µM	> 100 µM
C[C@@H]1COCCN1c1cc(N)nc2cc(-c3ccn[nH]3)sc12 [Compound 177]	> 30 µM	> 100 µM
Nc1cc(N2CCN(C=O)CC2)c2sc(-c3ccn[nH]3)cc2n1 [Compound 178]	> 30 µM	> 100 µM
Nc1cc(N2CC3CC(C2)N3C=O)c2sc(-c3ccn[nH]3)cc2n1 [Compound 179]	> 30 µM	> 100 µM
COC1CCN(c2cc(N)nc3cc(-c4ccn[nH]4)sc23)C1 (stereo not shown) [Compound 180]	> 30 µM	> 100 µM
Nc1cc(N2CC[C@@H](O)C2)c2sc(-c3ccn[nH]3)cc2n1 [Compound 181]	> 30 µM	> 100 µM
Nc1cc(N[C@H]2C[C@H]2CO)c2sc(-c3ccn[nH]3)cc2n1 [Compound 182s]	> 30 µM	> 100 µM
